Assay results taken from patent US11478478B2, “2,3-disubstituted 1-acyl-4-amino-1,2,3,4-tetrahydroquinoline derivatives and their use as bromodomain inhibitors” (GLAXOSMITHKLINE INTELLECTUAL PROPERTY (NO.2) LIMITED, priority 2013, dated 2022).

What follows are compounds tested against T1, BRD4 BD2 (Homo sapiens, UniProt O60885, Y97A) (assay: TR-FRET binding assay, BRD4 BD2 (BD1-mutated protein)). Settings: read-out: pIC50 in the BRD4 BD2 assay (converted).
T1 construct: BRD4 (1-477) (Y97A) and (Y390A); made in house; host or cells: E. coli (pET15b vector)
How it was run: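 Displacement of Alexa Fluor647-labelled bromodomain ligand (at Kd) from 10 nM His-tagged BRD4 (1-477, Y97A) read by Eu-anti-His TR-FRET (665/615 ratio) in pH 7.4 HEPES buffer, 0.5% DMSO. Compound preincubated 30 min at rt, detection ≥30 min. pIC50 derived from four-parameter fit after normalisation to controls.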
With `CC(=O)N1c2ccc(C(=O)NCCO)cc2[C@H](Nc2ccc(C#N)cc2)[C@@H](C)[C@@H]1C1CC1` [Example 492, (2S,3R,4R)-1-acetyl-4-((4-cyanophenyl)amino)-2-cyclopropyl-N-(2-hydroxyethyl)-3-methyl-1,2,3,4-tetrahydroquinoline-6-carboxamide] the IC50 was 100 nM. With `Cc1ccnc(N[C@H]2c3cc(C(N)=O)ccc3N(C(=O)C(C)C)[C@@H](C3CC3)[C@@H]2C)n1` [Example 422, (2S,3R,4R)-2-cyclopropyl-1-isobutyryl-3-methyl-4-((4-methylpyrimidin-2-yl)amino)-1,2,3,4-tetrahydroquinoline-6-carboxamide] the IC50 was 1000 to 100000 nM. Work on `CNC(=O)c1ccc(N[C@H]2c3cc(N4CCN[C@@H](C)C4)ccc3N(C(C)=O)[C@@H](C3CC3)[C@@H]2C)cc1` (racemic) [Example 228, 4-(((rac-2S,3R,4R)-1-acetyl-2-cyclopropyl-3-methyl-6-((S)-3-methylpiperazin-1-yl)-1,2,3,4-tetrahydroquinolin-4-yl)amino)-N-methylbenzamide] yielded an IC50 of 1000 to 100000 nM. In the case of `CC(=O)N1c2ccc(F)cc2[C@H](Nc2ncccc2C(N)=O)[C@@H](C)[C@@H]1C` [Example 527, 2-(((2S,3R,4R)-1-acetyl-6-fluoro-2,3-dimethyl-1,2,3,4-tetrahydroquinolin-4-yl)amino)nicotinamide], the IC50 was 100 nM. Work on `CC(=O)N1c2ccc(C(=O)NC(CO)CO)cc2[C@H](Nc2ccc(C#N)cc2)[C@@H](C)[C@@H]1C1CC1` [Example 493, (2S,3R,4R)-1-acetyl-4-((4-cyanophenyl)amino)-2-cyclopropyl-N-(1,3-dihydroxypropan-2-yl)-3-methyl-1,2,3,4-tetrahydroquinoline-6-carboxamide] yielded an IC50 of 100 nM. With `CNC(=O)c1ccc(N[C@H]2c3cc(F)ccc3N(C(C)=O)[C@@H](C)[C@@H]2C)cc1` [Example 506, 4-(((2S,3R,4R)-1-acetyl-6-fluoro-2,3-dimethyl-1,2,3,4-tetrahydroquinolin-4-yl)amino)-N-methylbenzamide] the IC50 was 100 nM. For `CC(=O)N1c2ccc(F)cc2[C@H](Nc2ccc(C#N)cc2)[C@@H](C)[C@@H]1C` (racemic) [Example 139, rac-4-(((2S,3R,4R)-1-acetyl-6-fluoro-2,3-dimethyl-1,2,3,4-tetrahydroquinolin-4-yl)amino)benzonitrile], the IC50 was 100 nM. In the case of `COc1cccc(N[C@H]2c3cc(C(N)=O)ccc3N(C(C)=O)[C@@H](C3CC3)[C@@H]2C)c1` [Example 360, (2S,3R,4R)-1-acetyl-2-cyclopropyl-4-((3-methoxyphenyl)amino)-3-methyl-1,2,3,4-tetrahydroquinoline-6-carboxamide], the IC50 was 100 nM. `CC[C@H]1[C@H](C)[C@@H](Nc2ccc(C(=O)NC)cc2)c2cc(N3CCNCC3)ccc2N1C(C)=O` (racemic) [Example 220, rac-4-(((2S,3R,4R)-1-acetyl-2-ethyl-3-methyl-6-(piperazin-1-yl)-1,2,3,4-tetrahydroquinolin-4-yl)amino)-N-methylbenzamide] gave an IC50 of 1000 to 100000 nM. `CNC(=O)c1ccc2c(c1)[C@H](Nc1ccc(C#N)cn1)[C@@H](C)[C@H](C)N2C(C)=O` (racemic) [Example 230, rac-(2S,3R,4R)-1-acetyl-4-((5-cyanopyridin-2-yl)amino)-N,2,3-trimethyl-1,2,3,4-tetrahydroquinoline-6-carboxamide] gave an IC50 of 100 nM. `CC(=O)N1c2ccccc2[C@H](Nc2cccc(C)c2)[C@@H](C)[C@@H]1C` (racemic) [Example 16, rac-1-((2S,3R,4R)-2,3-dimethyl-4-(m-tolylamino)-3,4-dihydroquinolin-1(2H)-yl)ethanone] gave an IC50 of 100 nM. `CC(=O)N1c2ccc(N3CCNCC3)cc2[C@H](Nc2ccccc2)[C@@H](C)[C@@H]1C` (racemic) [Example 69, rac-1-((2S,3R,4R)-2,3-dimethyl-4-(phenylamino)-6-(piperazin-1-yl)-3,4-dihydroquinolin-1(2H)-yl)ethanone] showed an IC50 of 100 nM. Compound `CC(=O)N1c2ccc(C(N)=O)cc2[C@H](Nc2ncccn2)[C@@H](C)[C@@H]1C1CC1` [Example 399, (2S,3R,4R)-1-acetyl-2-cyclopropyl-3-methyl-4-(pyrimidin-2-ylamino)-1,2,3,4-tetrahydroquinoline-6-carboxamide] has an IC50 of 100 nM. In the case of `COCCCNC(=O)c1ccc2c(c1)[C@H](Nc1cccc(C)n1)[C@@H](C)[C@H](C1CC1)N2C(C)=O` [Example 480, (2S,3R,4R)-1-acetyl-2-cyclopropyl-N-(3-methoxypropyl)-3-methyl-4-((6-methylpyridin-2-yl)amino)-1,2,3,4-tetrahydroquinoline-6-carboxamide], the IC50 was 100 nM. `CC(=O)N1c2ccccc2[C@H](Nc2ccc(F)cc2)[C@@H](C)[C@@H]1C1CC1` (racemic) [Example 32, rac-1-((2S,3R,4R)-2-Cyclopropyl-4-((4-fluorophenyl)amino)-3-methyl-3,4-dihydroquinolin-1(2H)-yl)ethanone] gave an IC50 of 100 nM. `CC[C@H]1[C@H](C)[C@@H](Nc2ccc(C#N)cc2)c2cc(F)ccc2N1C(C)=O` (racemic) [Example 62, rac-4-(((2S,3R,4R)-1-acetyl-2-ethyl-6-fluoro-3-methyl-1,2,3,4-tetrahydroquinolin-4-yl)amino)benzonitrile] was tested, and the IC50 was 100 nM. Work on `COc1cnc(N[C@H]2c3cc(C(N)=O)ccc3N(C(C)=O)[C@@H](C3CC3)[C@@H]2C)nc1C` [Example 348, (2S,3R,4R)-1-acetyl-2-cyclopropyl-4-((5-methoxy-4-methylpyrimidin-2-yl)amino)-3-methyl-1,2,3,4-tetrahydroquinoline-6-carboxamide] yielded an IC50 of 1000 to 100000 nM. With `CC(=O)OC[C@@H]1[C@@H](Nc2ccccc2)c2ccccc2N(C(C)=O)[C@H]1C1CC1` (racemic) [Example 591, rac-((2S,3R,4R)-1-acetyl-2-cyclopropyl-4-(phenylamino)-1,2,3,4-tetrahydroquinolin-3-yl)methyl acetate] the IC50 was 1000 to 100000 nM. Work on `CC(=O)N1c2ccc(N3CCNCC3)cc2[C@H](Nc2ccc(C#N)cc2)[C@@H](C)[C@@H]1C` [Example 214, 4-(((2S,3R,4R)-1-acetyl-2,3-dimethyl-6-(piperazin-1-yl)-1,2,3,4-tetrahydroquinolin-4-yl)amino)benzonitrile] yielded an IC50 of 100 nM. `CC(=O)N1c2ccc(C(N)=O)cc2[C@@H](Nc2nccc(C)n2)[C@H](C)[C@H]1C1CC1` (single isomer, unassigned) [Example 397] gave an IC50 of 1000 to 100000 nM. For `CC[C@H]1[C@H](C)[C@@H](Nc2cnc(C#N)cn2)c2cc(N3CCNCC3)ccc2N1C(C)=O` (racemic) [Example 221, rac-5-(((2S,3R,4R)-1-acetyl-2-ethyl-3-methyl-6-(piperazin-1-yl)-1,2,3,4-tetrahydroquinolin-4-yl)amino)pyrazine-2-carbonitrile], the IC50 was 1000 to 100000 nM. With `CC(=O)N1c2ccc(F)cc2[C@H](Nc2ncccn2)[C@@H](C)[C@@H]1C` [Example 501, 1-((2S,3R,4R)-6-fluoro-2,3-dimethyl-4-(pyrimidin-2-ylamino)-3,4-dihydroquinolin-1(2H)-yl)ethanone] the IC50 was 100 nM. Compound `CC[C@H]1[C@H](C)[C@@H](Nc2cccc(C)n2)c2ccccc2N1C(C)=O` (single isomer, unassigned) [Example 25a] has an IC50 of 100 nM. In the case of `CNCCn1cc(-c2ccc3c(c2)[C@H](Nc2ccc(C#N)cc2)[C@@H](C)[C@H](C2CC2)N3C(C)=O)cn1` (racemic) [Example 134, rac-4-(((2S,3R,4R)-1-acetyl-2-cyclopropyl-3-methyl-6-(1-(2-(methylamino)ethyl)-1H-pyrazol-4-yl)-1,2,3,4-tetrahydroquinolin-4-yl)amino)benzonitrile], the IC50 was 100 nM. `CNC(=O)c1ccc(N[C@@H]2c3cc(C4=CCOCC4)ccc3N(C(C)=O)[C@H](C3CC3)[C@H]2C)cc1` (single isomer, unassigned) [Example 551a] gave an IC50 of 1000 to 100000 nM. `CC(=O)N1c2ccc(N3CCOCC3)cc2[C@@H](Nc2ccccc2)[C@H](C)[C@H]1C1CC1` (single isomer, unassigned) [Example 91b] was tested, and the IC50 was 1000 to 100000 nM.

These compounds were tested on Bromodomains BRD2, BRD3, BRD4 and BRDT (assay: Binding of the fluoroligand to mutated versus non-mutated bromodomain). Settings: single residue mutations in the acetyl lysine binding pocket.
Parameters: species or system Human
Protocol: Time Resolved Fluorescence Resonance Energy Transfer (TR-FRET) Assay Binding was assessed using a time resolved fluorescent resonance energy transfer binding assay. This utilises a 6 His purification tag at the N-terminal of the proteins as an epitope for an anti-6 His antibody labeled with Europium chelate (PerkinElmer AD0111) allowing binding of the Europium to the proteins which acts as the donor fluorophore. A small molecule, high affinity binder of the bromodomains BRD2, BRD3, BRD4 and BRDT has been labeled with Alexa Fluor647 (Reference Compound X) and this acts as the acceptor in the FRET pair.
The binding of the compounds of formula (I) to Bromodomains BRD2, BRD3, BRD4 and BRDT was assessed using mutated proteins to detect differential binding to either Binding Domain 1 (BD1) or Binding Domain 2 (BD2) on the bromodomain. These single residue mutations in the acetyl lysine binding pocket greatly lower the affinity of the fluoroligand (Reference Compound X) for the mutated domain (>1000 fold selective for the non-mutated domain). Therefore in the final assay conditions, binding of the fluoroligand to the mutated domain cannot be detected and subsequently the assay is suitable to determine the binding of compounds to the single non-mutated bromodomain. […]
With `COc1ccc2c(c1)C(c1ccc(Cl)cc1)=N[C@@H](CC(=O)NCCCCCNC(=O)CCCCCC1(C)/C(=C/C=C/C=C/C3=[N+](CCCCS(=O)(=O)O)c4ccc(S(=O)(=O)O)cc4C3(C)C)N(CCCCS(=O)(=O)[O-])c3ccc(S(=O)(=O)O)cc31)c1nnc(C)n1-2` (stereo partly drawn) [Reference Compound X] the “selectivity of the fluoroligand for the non-mutated domain over the mutated domain” value was > 1000 fold.
